Patent US20120295844A1, “USE OF APROTININ FOR TREATING PARASITIC INFECTIONS AND PROGNOSING BOVINE TRYPANOTOLERANCE” (priority 2010, published 2012)

What was measured:
[1] = tested on: NO production by RAW 264.7 macrophage line cells; experiment: NO production inhibition by RAW 264.7 macrophage line (Griess assay); type: cell-based, mouse; settings: LPS + IFNγ stimulated RAW 264.7 cells
Protocol: (§1) Two different vials of the J774.2 line were used at the 8th and 9th passages. The cells from these vials were placed in culture in parallel, and the tests were triplicated. The cells were first stimulated with Lipopolysaccharide (LPS, InvivoGen) at a concentration of 100 ng/ml and with mouse interferon gamma (IDNγ, AbD serotex) at a final concentration of 10 ng/ml and incubated in the absence (control) or in the presence of various concentrations of BPTI (range of 12.5 to 100 μM) for 15 hours at 37° C./5% CO2 in a complete medium containing DMEM glutamax (Gibco) supplemented with 10% foetal calf serum (FCS) and 1% penicillin/streptamycin. The quantity of NO produced was determined by means of a colorimetric assay according to the Griess principle (Pinelli et al., Vet. Parasitol., 2000, 92: 181-189). For each BPTI concentration, NO production inhibition percentage is calculated according to the following formula: […]
Two different vials of the RAW 264.7 line were used at the 10th and 11th passages. The cells from these vials were placed in culture in parallel, and the tests were triplicated and performed as described above.

[2] = tested on: NO production by J774.2 macrophage line cells; experiment: NO production inhibition by J774.2 macrophage line (Griess assay); type: cell-based, mouse; settings: LPS + IFNγ stimulated J774.2 cells, 15 hours
Protocol: as §1

[3] = tested on: "trypsin-like" (serine protease) in Trypanosoma congolense (Tc. IL1180) lysates; experiment: BAPNA degradation by Trypanosoma congolense (Tc. IL1180) lysates; type: biochemical; settings: BPTI 3.125 mg/ml or 481.25 μM or 625 μg/well, BAPNA 0.315 mM
Protocol: (§2) The parasites were placed in rodent culture and purified on a DEAE cellulose column. The parasites were then counted, and lysed by means of 4 successive 1-minute passages in liquid nitrogen and in a water-bath at 37° C. The tests were conducted on three independent procedures in triplicate using […]. The method used for detecting “trypsin-like” (serine protease) consists of measuring, as a function of time, the initial degradation rate of a homogeneous substrate, N-benzoyl-ariginine-p-nitroaniline (BAPNA), under the effect of “trypsin-like” found in lysates in the presence of absence of BPTI. The appearance of the degradation product, p-nitroalinine (p-Na), which is yellow in colour, is measured by means of spectrophotometry at 405 nm. The enzyme activity calculation is performed according to the Beer-Lambert law.

[4] = tested on: "trypsin-like" (serine protease) in Leishmania donovani donovani (Ldd8) lysates; experiment: BAPNA degradation by Leishmania donovani donovani (Ldd8) lysates; type: biochemical; settings: BPTI 625 μg; lysate alone 1.767
Protocol: as §2
(§3) Leishmania (Ldi and Ldd8) were placed in culture in RMPI supplemented with 10% FCS, 1% penicillin/streptomycin and 1% Ultraglutamine and placed in an incubator) 37° C./5% CO2 for one week. The leishmania are counted and lysed according to the protocol defined for trypanosome lysis. The method for detecting and the method for calculating the enzyme activity were identical to those used for trypanosomes. The tests using Ldi and Ldd8 were conducted on three independent procedures in triplicate using […].

[5] = tested on: "trypsin-like" (serine protease) in Leishmania donovani infantum (Ldi) lysates; experiment: BAPNA degradation by Leishmania donovani infantum (Ldi) lysates; type: biochemical; settings: BPTI 625 μg; lysate alone 2.893
Protocol: as §2, §3

[6] = tested on: Leishmania donovani infantum (Ldi); experiment: Viability and growth of Leishmania donovani infantum (Ldi) cultured in vitro (FACS); type: cell-based; settings: BPTI 50, 100, 200 μM
Protocol: The growth and viability of Leismania donovani infantum parasites were measured by FACS at 4, 12, 24, 48, 72, 144 and 168 hours of culture after addition of BPTI at concentrations of 50, 100 and 200 μM. The results are presented in graphs A and B in FIG. 10.
The effect of BPTI was tested for each time value with a non-parametric test (Kruskal-Wallis test).

[7] = tested on: Trypanosoma congolense IL1180; experiment: Viability of Trypanosoma congolense IL1180 cultured in vitro (FACS, microscopy); type: cell-based; settings: for mortality induced by BPTI (natural mortality subtracted): 48 hours
Protocol: Before adding BPTI and for measurement times: 1.5 hours, 17 hours and 24 hours, the parasites (Trypanosoma congolense IL1180) are clearly visible; their form is as expected (fusiform), and they are mobile. However, the mortality becomes increasingly visible over time. The impact of BPTI on morphology is perceptible 17 hours (and thereafter) after adding BPTI to the culture. […] In order to analyze the effect of BPTI on parasite viability, flow cytometry measurements were made at different times (1.5 hours, 17 hours, 24 hours and 48 hours after adding 100 μM or 200 μM of BPTI for parasite concentrations of 5×10^6 parasites/ml and 10×10^6 parasites/ml). The results obtained are represented in graphs A and B in FIG. 7. There is a “natural” mortality of Trypanosoma congolense in vitro, due to the difficulty maintaining sanguicolous forms of Trypanosoma congolense in liquid culture. This mortality increases over time and reaches values of 49.1% and 47.1% under conditions using 5.10^6 parasites/ml and 10.10^6 parasites/ml, respectively. However, a trypanocidal action of BPTI may be observed on trypanosome cultures, a slight dose-dependent effect of BPTI on parasite viability may be recorded. The effect of BPTI is extremely significant and appears to be also time-dependent. […] The mortality induced by BPTI on a population of 5×10^6 trypanosomes (10×10^6 parasites/ml) under the same conditions is 49.6% and 48.8%, respectively (see graphs A and B in FIG. 8).

[8] = tested on: NO production by bovine macrophages; experiment: NO production inhibition by bovine macrophages derived from circulating monocytes; type: cell-based; settings: LPS + bovine IFNg
Protocol: as §1
Bovine monocytes were isolated from circulating monocytes. Two independent tests were performed and each of the tests was triplicated. The monocytes were stimulated with LPS at a concentration of 250 ng/ml and bovine IFNg at a final concentration of 10 ng/ml. The cells were then incubated in the absence ([…]) for 20 hours (test 1) and 24 hours (test 2) at 37° C./5% CO2 in IMDM complete medium containing IMDM supplemented with L-glutamine at […] final, gentamicin at 50 μg/ml final, 10% FCS and 5×10^−5 M b-mercaptoethanol.

aprotinin [BPTI]
NO production inhibition ([1]; BPTI 12.5 μM): NO inhibition was observed | NO production inhibition ([1]; BPTI 25 μM): 0.2% | NO production inhibition ([1]; BPTI 50 μM): 16.1% | NO production inhibition ([1]; BPTI 100 μM): 47.6% | NO production inhibition ([2]; BPTI 12.5 μM): 1.7% | NO production inhibition ([2]; BPTI 25 μM): 16.2% | NO production inhibition ([2]; BPTI 50 μM): 30.1% | NO production inhibition ([2]; BPTI 100 μM): 59.5% | mean inhibition of lysate enzyme activity [3]: 44.6% | lysate enzyme activity in the presence of BPTI ([3]; lysate alone 1.893): 1.048 (Standard deviation 0.073) | lysate enzyme activity with BPTI [4]: 1.0893 | lysate enzyme activity with BPTI [5]: 1.555 | effect on the viability of leishmania (Kruskal-Wallis test) ([6]; 72 hours, P-value=0.05): at the limit of significance | effect on the viability of leishmania (Kruskal-Wallis test) ([6]; 144 hours, P-value=0.05): significant effect | effect on the number of leishmania (growth, Kruskal-Wallis test) ([6]; 168 hours only, P-value=0.03): significant effect | effect on the viability of leishmania (Kruskal-Wallis test) ([6]; 168 hours, P-value=0.03): significant effect | effect on the viability of leishmania (Kruskal-Wallis test) ([6]; other observation times (4, 12, 24, 48 hours)): not significant | effect on parasite morphology (microscopic observation) ([7]; 17 hours and thereafter after adding BPTI to the culture): Spherical forms are observed | mortality induced by BPTI (natural mortality subtracted) ([7]; BPTI 100 μM, 2.5×10^6 trypanosomes (5×10^6 parasites/ml)): 46% | mortality induced by BPTI (natural mortality subtracted) ([7]; BPTI 100 μM, 5×10^6 trypanosomes (10×10^6 parasites/ml)): 49.6% | mortality induced by BPTI (natural mortality subtracted) ([7]; BPTI 200 μM, 2.5×10^6 trypanosomes (5×10^6 parasites/ml)): 47.4% | mortality induced by BPTI (natural mortality subtracted) ([7]; BPTI 200 μM, 5×10^6 trypanosomes (10×10^6 parasites/ml)): 48.8% | increase of in vitro parasite mortality ([7]; summary statement referring to Example 2): 50% | mean inhibition of NO production ([8]; Test 1, 20 hours, BPTI 12.5 μM): 8.4% | mean inhibition of NO production ([8]; Test 1, 20 hours, BPTI 25 μM): 14.2% | mean inhibition of NO production ([8]; Test 1, 20 hours, BPTI 50 μM): 32.6% | mean inhibition of NO production ([8]; Test 1, 20 hours, BPTI 100 μM): 70.5% | mean inhibition of NO production ([8]; Test 2, 24 hours, BPTI 6.25 μM): 12% | mean inhibition of NO production ([8]; Test 2, 24 hours, BPTI 12.5 μM): 25.9% | mean inhibition of NO production ([8]; Test 2, 24 hours, BPTI 25 μM): 62.5% | mean inhibition of NO production ([8]; Test 2, 24 hours, BPTI 50 μM): 70% | mean inhibition of NO production ([8]; Test 2, 24 hours, BPTI 100 μM): 60.2%
